Results on 14 molecules are retold here after publication PMC11901911, “Diverse Structures of Tea Polyphenols from Rougui Wuyi Rock Tea and Their Potential as Inhibitor of 3C-like Protease” (Molecules, 2025).

Read-outs that look alike come from different tables or passages of the source.

In test [1] the target is T1, SARS-CoV-2 3CLpro (Severe acute respiratory syndrome coronavirus 2, UniProt P0DTD1).
T1 construct: The kit contains assay buffer (125 mL, blank control), 2019-nCoV-2 3CLpro (500 μL), substrate (1 mL); purchased Beyotime Biotechnology (Shanghai, China) P0312M
Briefly: biochemical. As to conditions: for inhibition at 100 µM: compound concentration 100 μM; for inhibition at 100 µM / inhibition at 10 µM: read-out: Inhibition rate (%) against 3CLpro; for IC50: FRET assay, serial dilution, read-out: IC50 against SARS-CoV-2 3CLpro; for inhibition at 10 µM: compound concentration 10 μM.

Test [2] has as its target T1, SARS-CoV-2 3CLpro. Further details: method as in PMID 32963564. As to conditions: in vitro; read-out: IC50 on SARS-CoV-2 3CLpro protein activity; cited from earlier work.

As a reminder, the inhibition is the share of the control response that was lost under treatment. `Oc1cc(O)c2c(c1)O[C@H](c1ccc(O)c(O)c1)[C@H](O)C2` [Compound 1, (−)-epicatechin]: in test [1], the inhibition at 100 µM was more than 50%.

Broadly, the IC50 is the concentration that gives 50% inhibition. Consider `Oc1cc(O)c2c(c1)O[C@H](c1cc(O)c(O)c(O)c1)[C@H](O)C2` [Compound 4, (−)-epigallocatechin], for which, in test [1], the IC50 worked out at 12 ± 1.9 µM and the inhibition at 10 µM is more than 50%.

In the case of `O=C(O[C@@H]1Cc2c(O)cc(O)cc2O[C@@H]1c1cc(O)c(O)c(O)c1)c1cc(O)c(O)c(O)c1` [Compound 5, (−)-epigallocatechin-3-O-gallate], the inhibition at 10 µM in test [1] is more than 50%.

In the case of `COc1cc(C(=O)O[C@@H]2Cc3c(O)cc(O)cc3O[C@@H]2c2cc(O)c(O)c(O)c2)cc(O)c1O` [Compound 6, (−)-epigallocatechin-3-(3′-O-methyl)-gallate], in test [1], the IC50 is 9.8 ± 0.4 µM and the inhibition at 10 µM was more than 50%.

As for `O=C(O[C@@H]1Cc2c(O)cc(O)cc2O[C@@H]1c1ccc(O)cc1)c1cc(O)c(O)c(O)c1` [Compound 7, (−)-epiafzelechin-3-O-gallate], the inhibition at 100 µM in test [1] is more than 50%.

For `O=C(O[C@H]1Cc2c(O)cc(O)cc2O[C@@H]1c1cc(O)c(O)c(O)c1)c1cc(O)c(O)c(O)c1` [Compound 9, (−)-gallocatechin-3-O-gallate], the inhibition at 10 µM in test [1] was more than 50%.

Turning to `CCN1C(=O)CC[C@@H]1c1c(O)cc2c(c1O)C[C@@H](O)[C@@H](c1cc(O)c(O)c(O)c1)O2` [Compound 11, 6-(5″R)-N-ethyl-2-pyrrolidinone-epigallocatechin], in test [1], the half-inhibitory concentration (IC50) turned out to be 22.4 ± 5.8 µM and the inhibition at 100 µM is more than 50%.

With `CCN1C(=O)CC[C@H]1c1c(O)cc2c(c1O)C[C@@H](O)[C@@H](c1cc(O)c(O)c(O)c1)O2` [Compound 12, 6-(5″S)-N-ethyl-2-pyrrolidinone-epigallocatechin], in test [1], the 50% inhibitory concentration (IC50) was found to be 26.8 ± 0.9 µM and the inhibition at 100 µM is more than 50%.

Take `CCN1C(=O)CC[C@H]1c1c(O)cc(O)c2c1O[C@H](c1cc(O)c(O)c(O)c1)[C@H](O)C2` [Compound 14, puerin V]: in test [1], the IC50 was 14.9 ± 1.4 µM and the inhibition at 100 µM was more than 50%.

For `CCN1C(=O)CC[C@@H]1c1c(O)cc(O)c2c1O[C@H](c1cc(O)c(O)c(O)c1)[C@H](O)C2` [Compound 15, puerin VI], in test [1], the IC50 amounted to 14.5 ± 1.1 µM and the inhibition at 100 µM is more than 50%.

Consider `COc1cc(C(=O)O[C@@H]2Cc3c(O)cc(O)cc3O[C@@H]2c2cc(O)c(O)c(O)c2-c2c([C@H]3Oc4cc(O)cc(O)c4C[C@H]3O)cc(O)c(O)c2O)cc(O)c1O` [Compound 20, Epigallocatechin-(2′→2′)-epigallocatechin-3-(3″-O-methyl)-gallate], for which, in test [1], the IC50 is 42.1 µM and the inhibition at 100 µM is more than 50%.

Consider `O=C(O[C@@H]1Cc2c(O)cc(O)cc2O[C@@H]1c1cc(O)c(O)c(O)c1-c1c([C@H]2Oc3cc(O)cc(O)c3C[C@H]2OC(=O)c2cc(O)c(O)c(O)c2)cc(O)c(O)c1O)c1cc(O)c(O)c(O)c1` [Compound 21, theasinensin A], for which the inhibition at 100 µM in test [1] was more than 50%.

On to `C[C@@H]1O[C@@H](OC[C@H]2O[C@@H](Oc3c(-c4ccc(O)cc4)oc4cc(O)cc(O)c4c3=O)[C@H](OC(=O)/C=C\c3ccc(O)cc3)[C@@H](O)[C@H]2O)[C@H](O)[C@H](O[C@@H]2O[C@H](CO)[C@@H](O)[C@H](O)[C@H]2O)[C@H]1O` [Compound 32, Kaempferol-3-O-[2″-O-(Z)-p-coumaroyl] [β-D-glucopyranosyl-(1→3)-O-α-L-rhamnopyranosyl-(1→6)]-β-D-galactopyranoside], for which, in test [1], the concentration for half-maximal inhibition (IC50) amounted to 61.1 µM and the inhibition at 100 µM is more than 50%.

In the case of `O=c1c(O)cc([C@H]2Oc3cc(O)cc(O)c3C[C@H]2O)cc2c([C@H]3Oc4cc(O)cc(O)c4C[C@H]3O)cc(O)c(O)c12` [theaflavin], in test [2], the IC50 is 15 µM.
